Laboratory results as given in patent US20200031778A1, “NOVEL 5-SUBSTITUTED IMIDAZOLYLMETHYL DERIVATIVES” (Bayer CropScience Aktiengesellschaft, priority 2016, published 2020).

Assays:
Puccinia recondita = experiment: Example IX-A: in vivo preventive test on Puccinia recondita (brown rust on wheat); settings: 264 h, compounds of formula IX, 500 ppm of active ingredient, wheat plants, preventive spray, evaluated 11 days after inoculation, read-out: efficacy
Experimental: Example IX-A: In Vivo Preventive Test on Puccinia Recondita (Brown Rust on Wheat)
(§1) The active ingredients are made soluble and homogenized in a mixture of Dimethyl sulfoxide/Acetone/Tween® 80 and then diluted in water to the desired concentration.
(§2) The young plants of wheat are treated by spraying the active ingredient prepared as described above. Control plants are treated only with an aqueous solution of Acetone/Dimethyl sulfoxide/Tween® 80.
After 24 hours, the plants are contaminated by spraying the leaves with an aqueous suspension of Puccinia recondita spores. The contaminated wheat plants are incubated for 24 hours at 20° C. and at 100% relative humidity and then for 10 days at 20° C. and at 70-80% relative humidity.
(§3) The test is evaluated 11 days after the inoculation. 0% means an efficacy which corresponds to that of the control plants while an efficacy of 100% means that no disease is observed.

Uromyces appendiculatus = experiment: Example IX-D: in vivo preventive test on Uromyces appendiculatus (bean rust); settings: 264 h, compounds of formula IX, 500 ppm of active ingredient, bean plants, preventive spray, evaluated 11 days after inoculation, read-out: efficacy
Experimental: Example IX-D: In Vivo Preventive Test on Uromyces Appendiculatus (Bean Rust)
as §1
The young plants of bean are treated by spraying the active ingredient prepared as described above. Control plants are treated only with an aqueous solution of Acetone/Dimethyl sulfoxide/Tween® 80.
After 24 hours, the plants are contaminated by spraying the leaves with an aqueous suspension of Uromyces appendiculatus spores. The contaminated bean plants are incubated for 24 hours at 20° C. and at 100% relative humidity and then for 10 days at 20° C. and at 70-80% relative humidity.
as §3
control plants while an efficacy of 100% means that no disease was observed.

Sphaerotheca fuliginea = experiment: Example IX-C: in vivo preventive test on Sphaerotheca fuliginea (powdery mildew on cucurbits); settings: Podosphaera fuliginea, 360 h; compounds of formula IX; 500 ppm of active ingredient; gherkin plants, preventive spray; evaluated 15 days after inoculation; read-out: efficacy
Experimental: Example IX-C: In Vivo Preventive Test on Sphaerotheca Fuliginea (Powdery Mildew on Cucurbits)
as §1
The young plants of gherkin are treated by spraying the active ingredient prepared as described above. Control plants are treated only with an aqueous solution of Acetone/Dimethyl sulfoxide/Tween® 80.
After 24 hours, the plants are contaminated by spraying the leaves with an aqueous suspension of Sphaerotheca fuliginea spores. The contaminated gherkin plants are incubated for 72 hours at 18° C. and at 100% relative humidity and then for 12 days at 20° C. and at 70-80% relative humidity.
The test is evaluated 15 days after the inoculation. 0% means an efficacy which corresponds to that of the control plants while an efficacy of 100% means that no disease is observed.

Septoria tritici = experiment: Example IX-B: in vivo preventive test on Septoria tritici (leaf spot on wheat); settings: Zymoseptoria tritici, 576 h; compounds of formula IX; 500 ppm of active ingredient; wheat plants, preventive spray; evaluated 24 days after inoculation; read-out: efficacy
Experimental: Example IX-B: In Vivo Preventive Test on Septoria Tritici (Leaf Spot on Wheat)
as §1, §2
After 24 hours, the plants are contaminated by spraying the leaves with an aqueous suspension of Septoria tritici spores. The contaminated wheat plants are incubated for 72 hours at 18° C. and at 100% relative humidity and then for 21 days at 20° C. and at 90% relative humidity.
The test is evaluated 24 days after the inoculation. 0% means an efficacy which corresponds to that of the control plants while an efficacy of 100% means that no disease is observed.

[1] = Log P by HPLC on reversed phase columns (EEC directive 79/831 Annex V.A8; methods [a], [b], [c]); format: physicochemical; settings: reversed phase HPLC column; method [a]: LC-UV, acidic range, 0.1% formic acid in water and acetonitrile as eluent (linear gradient from 10% to 95% acetonitrile)
How it was run: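 Log P derived from retention times, interpolated linearly between bracketing straight-chain alkan-2-ones (3–16 carbons) of known Log P. Eluents ran acetonitrile 10% to 95% against water with 0.1% formic acid ([a], acidic), 0.001 M ammonium acetate ([b], neutral) or 0.1% phosphoric acid ([c], acidic); UV read-out.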

| SMILES | pest or weed control at 500 ppm (Puccinia recondita) [%] | pest or weed control at 500 ppm (Uromyces appendiculatus) [%] | pest or weed control at 500 ppm (Sphaerotheca fuliginea) [%] | pest or weed control at 500 ppm (Septoria tritici) [%] | chromatographic logP [1] |
| --- | --- | --- | --- | --- | --- |
| O=C(Cn1cncc1Cl)c1ccc(Oc2ccc(Cl)cc2)cc1Cl [IX-04] | 90 to 100 | 90 to 100 | 90 to 100 | 90 to 100 | 3.17 |
| O=C(Cn1cncc1Cl)c1ccc(Oc2ccc(Cl)cn2)cc1Cl [IX-05] | 70 to 79 | 80 to 89 | 90 to 100 | 80 to 89 | 2.53 |
| O=C(Cn1cncc1Br)c1ccc(Oc2ccc(OC(F)(F)F)cc2)cc1Br [IX-06] | 80 to 89 | 70 to 79 | 90 to 100 | 90 to 100 | 3.53 |
| Cc1ccc(Oc2ccc(C(=O)Cn3cncc3Cl)c(Cl)c2)cc1 [IX-07] | 90 to 100 | 90 to 100 | 90 to 100 | 90 to 100 | 3.09 |
| O=C(Cn1cncc1Cl)c1ccc(Oc2ccc(F)cc2)cc1Cl [IX-08] | 80 to 89 | 90 to 100 | 90 to 100 | 90 to 100 | 2.73 |
| O=C(Cn1cncc1Cl)c1ccc(Oc2ccc(OC(F)(F)F)cc2)cc1Cl [IX-09] | 90 to 100 | 90 to 100 | 90 to 100 | 90 to 100 | 3.37 |
| O=C(Cn1cncc1Cl)c1ccc(Oc2ccc(I)cc2)cc1Cl [IX-13] | 90 to 100 | 90 to 100 | 90 to 100 | 90 to 100 | 3.41 |
| O=C(Cn1cncc1Cl)c1ccc(Oc2ccc(C(F)(F)F)cc2)cc1Cl [IX-14] | 90 to 100 | 90 to 100 | 90 to 100 | 90 to 100 | 3.33 |
| O=C(Cn1cncc1Cl)c1ccc(Oc2ccc(Br)cc2)cc1Cl [IX-15, 1-[4-(4-bromophenoxy)-2-chloro-phenyl]-2-(5-chloroimidazol-1-yl)ethanone] | 90 to 100 | 90 to 100 | 90 to 100 | 90 to 100 | 3.13 |
| O=C(Cn1cncc1Br)c1ccc(Oc2ccc(Cl)cc2)cc1Cl [IX-18] | 90 to 100 | 90 to 100 | 90 to 100 | 90 to 100 | 3.07 |
| O=C(Cn1cncc1Cl)c1cnc(Oc2ccc(Cl)cc2)cc1Cl [IX-23] | 80 to 89 | 90 to 100 | 90 to 100 | 90 to 100 | 2.75 |
| O=C(Cn1cncc1Cl)c1ccc(Oc2ccc(Br)cc2)cc1C(F)(F)F [IX-29] | 90 to 100 | 80 to 89 | 80 to 89 | 90 to 100 | 3.37 |
| O=C(Cn1cncc1Cl)c1ccc(Oc2ccc(Cl)cc2)cc1C(F)(F)F [IX-30] | 70 to 79 | 90 to 100 | 80 to 89 | 90 to 100 | 3.37 |
| N#Cc1cncn1CC(=O)c1ccc(Oc2ccc(Cl)cc2)cc1Cl [IX-31] | 90 to 100 | 90 to 100 | 90 to 100 | 90 to 100 | 3.46 |
| O=C(Cn1cncc1Br)c1ccc(Oc2ccc(I)cc2)cc1Cl [IX-32] | 80 to 89 | 90 to 100 | 90 to 100 | 90 to 100 | 3.35 |
| O=C(Cn1cncc1Br)c1ccc(Oc2ccc(Cl)cc2)cc1Br [IX-33] | 90 to 100 | 90 to 100 | 90 to 100 | 90 to 100 | 3.13 |
| O=C(Cn1cncc1Br)c1ccc(Oc2ccc(Br)cc2)cc1C(F)(F)F [IX-40] | 80 to 89 | 90 to 100 |  | 90 to 100 | 3.46 |
| O=C(Cn1cncc1Cl)c1ccc(Oc2ccc(C(F)(F)F)cc2)cc1C(F)(F)F [IX-53] | 90 to 100 | 90 to 100 |  | 90 to 100 | 3.51 |
| O=C(Cn1cncc1Cl)c1ccc(Oc2ccc(Cl)cc2)cc1C(F)F [IX-73] | 90 to 100 | 90 to 100 |  | 90 to 100 | 3.02 |
| O=C(Cn1cncc1F)c1cnc(Oc2ccc(C(F)F)cc2)cc1C(F)(F)F [IX-97] | 80 to 89 | 90 to 100 |  | 90 to 100 | 2.53 |
| N#Cc1cncn1CC(=O)c1cnc(Oc2ccc(C(F)F)cc2)cc1C(F)(F)F [IX-98] | 80 to 89 | 90 to 100 |  | 90 to 100 | 3.13 |
| N#Cc1cncn1CC(=O)c1ccc(Oc2ccc(Br)cc2)nc1C(F)(F)F [IX-118] |  | 80 to 89 | 90 to 100 | 90 to 100 | 3.39 |
| CC(=O)c1cncn1CC(=O)c1cnc(Oc2ccc(Cl)cc2)cc1C(F)(F)F [IX-120] | 90 to 100 | 80 to 89 |  | 90 to 100 | 3.55 |
| N#Cc1cncn1CC(=O)c1cnc(Oc2ccc(Br)cc2)cc1C(F)F [IX-123] | 90 to 100 | 90 to 100 |  | 90 to 100 | 2.89 |
| N#Cc1cncn1CC(=O)c1ccc(Oc2ccc(OC(F)(F)F)cc2)nc1C(F)(F)F [IX-129] | 90 to 100 |  | 90 to 100 | 90 to 100 | 3.32 |
| N#Cc1cncn1CC(=O)c1ccc(Oc2ccc(C(F)(F)F)nc2)nc1C(F)(F)F [IX-131] | 80 to 89 |  | 90 to 100 | 90 to 100 | 2.92 |
| N#Cc1cncn1CC(=O)c1ccc(Oc2ccc(C(F)F)cc2)nc1C(F)(F)F [IX-132] | 90 to 100 |  | 90 to 100 | 90 to 100 | 2.8 |
| N#Cc1cncn1CC(=O)c1ccc(Oc2ccc(C(F)(F)F)cc2)nc1C(F)(F)F [IX-137] | 90 to 100 |  | 90 to 100 | 90 to 100 | 3.35 |
| N#Cc1cncn1CC(=O)c1cnc(Oc2ccc(Br)nc2)cc1C(F)(F)F [IX-143] | 80 to 89 |  | 90 to 100 | 90 to 100 | 2.71 |
| N#Cc1cncn1CC(=O)c1ccc(Oc2ccc(Br)nc2)nc1C(F)(F)F [IX-144] | 70 to 79 |  | 90 to 100 | 90 to 100 | 2.68 |
